Values quoted from earlier work as cited in patent US20050220774A1, “Methods of inducing differentiation in ex vivo expanded stem cells” (priority 2002, published 2005).

How the values were obtained:
stem cells = settings: PCT/IL03/00064

NC(=O)c1cccnc1 [nicotinamide]
differentiation of stem cells ex vivo (stem cells): represses the process of differentiation of stem cells

NCCNCCNCCNCCN [TEPA, tetraethylenepentamine]
clonability of long-term cultures (CD34+ cells; long-term cultures (3-5 weeks)): more efficient clonability
cell clonability and percentage of CD34+ cells (CD34+ cells; with early-acting or early and late acting cytokines): significant increases
